Columns and labels:
Type in all cases: in vivo, dd Male mice
mice [1] = assay: Analgetic Effect on Acetic Acid-Induced Writhing Method; conditions: Mus musculus, oral, 30 minutes before intraperitoneal 0.6% acetic acid, writhing within 20 minutes, Litchfield Wilcoxon method
Method: (2) Analgetic Effect on Acetic Acid-Induced Writhing Method:
dd Male mice weighing 18 to 22 g, each group consisting of ten animals were given an intraperitoneal injection of 0.6% acetic acid in a dosage of 0.1 ml/10 g per body weight. The number of writhing syndromes occurring within 20 minutes after the injection was observed. Thereafter, the mice were orally given the test compounds suspended in a 0.2% carboxymethylcellulose solution 30 minutes before the injection of acetic acid. The inhibitory percentage was estimated in comparison with a control in which only a 0.2% carboxymethylcellulose solution was given, and the ED50 values were calculated by the Litchfield Wilcoxon method.

mice [2] = assay: Muscular Relaxing Effect: Rotarod Method; conditions: Mus musculus, oral, falling within 3 minutes from rod of 3 cm diameter at 10 rpm, maximum response over 15-180 minutes, Litchfield Wilcoxon method, read-out: ED50 Values, R.R (Rotarod Method)
Method: (§1) (1) Muscular Relaxing Effect:
(§2) dd Male mice weighing 18 to 22 g, one group consisting of ten animals were orally given the compounds (I) to (III) each suspended in a 0.2% carboxymethylcellulose solution in a dosage of 0.25 ml/10 g per body weight. Mephenesin and 5-(o-chlorobenzyl)-2-oxazoline were used as active placebos. The experiment was carried out according to the methods (a) to (c) as described below, and the ED50 values were calculated by the Litchfield Wilcoxon method, based on the maximum response in each dosage which was measured at intervals of 15, 30, 45, 60, 90, 120, 150 and 180 minutes after the administration of each of the test compounds.
Mice were placed on Rotar Load (made by Natsume Seisakusho Co., Ltd.) having a diameter of 3 cm and rotating at a speed of 10 rpm, and their falling (occurring within 3 minutes) was observed.

mice [3] = assay: Muscular Relaxing Effect: Traction Test; conditions: Mus musculus, oral, hind legs on wire within 5 seconds, maximum response over 15-180 minutes, Litchfield Wilcoxon method, read-out: ED50 Values, T.T (Traction Test)
Method: as §1, §2

mice [4] = assay: Muscular Relaxing Effect: Inclined Plane Test; conditions: Mus musculus, oral, veneer inclined at 30 degrees and wire network at 60 degrees, maximum response over 15-180 minutes, Litchfield Wilcoxon method, read-out: ED50 Values, I.P (Inclined Plane Test)
Method: as §1, §2
Mice were placed on veneer inclined at an angle of 30 degrees and on a wire network inclined at an angle of 60 degrees of which one mesh was 5 mm square, and the mice sliding down were considered as positive in comparison with their normal behavior.

SMILES	ED50 (mice [1]) [mg/kg]	ED50 (mice [2]) [mg/kg]	ED50 (mice [3]) [mg/kg]	ED50 (mice [4]) [mg/kg]
Cc1c(N(C)C)c(=O)n(-c2ccccc2)n1C [Aminopyrine]	64			
O=C1NCC(Cc2ccccc2Cl)O1 (centres unmarked) [Compound A, 5-(o-Chlorobenzyl)-2-oxazolidone, reference compound]	40	210	390	330
O=C1NCC(CCc2ccccc2)O1 (centres unmarked) [Compound I, 5-Phenethyl-2-oxazolidone]		196	217	261
O=C1NCC(CCc2ccccc2F)O1 (centres unmarked) [Compound II, 5-(o-Fluorophenethyl)-2-oxazolidone]		194	230	297
O=C1NCC(CCc2ccccc2Cl)O1 (centres unmarked) [Compound III, 5-(o-Chlorophenethyl)-2-oxazolidone]	36	182	225	268
Cc1ccccc1OCC(O)CO (centres unmarked) [Mephenesin, reference compound]			460	470

Source: US4236012A, “5-Phenethyl-2-oxazolidone derivatives and a process for producing the same” (Nippon Chemiphar Company, Limited, priority 1978, dated 1980)
